Consider 14 compounds from PubChem BioAssay (NCI).

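Five compound concentrations were applied to cells in 96-well plates for 48 hours; endpoints were derived by simple linear interpolation of the resulting dose-response curve. TGI: total growth inhibition.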

Test in all cases: inhibition of tumour cell growth, NCI panel, 48 h
Assay [1] deals with A549 NSCLC.
Assay [2] deals with KM12 colon.
Assay [3] relates to MDA-MB-231 breast.
Assay [4] relates to MDA-MB-435.
Assay [5] relates to NCI/ADR-RES ovarian.
Assay [6] relates to SF-295 CNS.
For assay [7], the system named is SNB-19 CNS.
Assay [8] concerns SNB-75 CNS.
Assay [9] has as its system RPMI-8226 leukemia.
Assay [10] relates to SF-268 CNS.
Assay [11] concerns U251 CNS.

As to `Cc1nc2c(nc1C)-c1c(c3c(n1Cc1ccccc1)C(=O)CCC3)C(=O)C2=O`, the TGI in assay [1] was more than 100 µM; in assay [2] it was 4.64 µM; in assay [3], more than 100 µM; in [4], 5.98 µM; in [5] it was more than 100 µM; in [6] it was 71.1 µM. The TGI in assay [7] amounted to 28.8 µM; in assay [8], 6.56 µM.

Turning to `Oc1ccc(-c2nc3cc(C(F)(F)F)ccc3n2CC2CCCN3CCCCC23)cc1` (centres undefined), the TGI in [2] was determined as 29.3 µM; in [3], 27.6 µM; in assay [4], 26.3 µM; in assay [5], 32.9 µM; in [9] it was 31.5 µM; in assay [10] it was 28.1 µM. In addition, the TGI came to 28.4 µM in [6], 32.4 µM in assay [8] and 28 µM in [11].

On to `C/C=C(/C)C(=O)O[C@@H]1c2c(C)coc2C[C@H]2CC[C@H](O)[C@H](C)[C@]21C`, for which the TGI is more than 100 µM in assay [2]; more than 100 µM in [3]; more than 100 µM in assay [4]; 55.9 µM in [5]; more than 100 µM in assay [9]; more than 100 µM in [10]. Further, the TGI in assay [6], in assay [7] and in [11] was more than 100 µM in each case.

In the case of `NC1CC2C3CCC2C1C3=O` (centres undefined), the TGI in [1], in assay [2], in [3], in assay [4], in [5] and in assay [10] was more than 100 µM each time. The TGI in assay [6], in assay [7], in [8] and in [11] was more than 100 µM in each case.

As for `CO/N=C1\CCC2(O)C3Cc4ccc(O)c5c4C2(CCN3CC2CC2)[C@H]1O5` (some centres undefined), the TGI in [1], in assay [2], in assay [3], in assay [4], in assay [5] and in assay [9] was more than 100 µM throughout. Besides, the TGI in assay [10], in assay [6], in assay [7] and in assay [11] was more than 100 µM throughout.

As to `N[C@@H]1c2c(Br)sc(Br)c2[C@H](O)[C@@H]1O`, the TGI in assay [1], in [2], in [3], in assay [4], in [5] and in assay [10] was more than 100 µM each time. Besides, the TGI in [6], in [7], in assay [8] and in assay [11] was more than 100 µM in each case.

As to `CC(SC(=S)N1CCCCC1)C(=O)Nc1nnc(-c2ccc(Cl)cc2)o1` (centres undefined), the TGI was more than 100 µM in assay [1]; more than 100 µM in [3]; more than 100 µM in [4]; more than 100 µM in assay [5]; 51.5 µM in assay [9]; 81.1 µM in assay [10]. Besides, the TGI in assay [7], in assay [8] and in assay [11] was more than 100 µM in each case.

Turning to `CCOC(=O)CCC(NC(=O)c1ccc(CNc2nc3cc(N)cc(N)c3nc2-c2ccccc2)cc1)C(=O)OCC` (centres undefined), the TGI in assay [1] was more than 100 µM; in [2], more than 100 µM; in [3], more than 68.1 µM; in assay [4] it was more than 86.4 µM; in [5] it was more than 100 µM; in assay [10], more than 100 µM. Besides, the TGI in assay [6], in assay [7], in assay [8] and in assay [11] was more than 100 µM each time.

`Cc1cc(C)c2c(n1)S(=O)(=O)N(CCCN1CCN(c3cccc(C(F)(F)F)c3)CC1)/C(=C(\O)c1ccccc1)C2=O`: the TGI is more than 100 µM in [1]; 27 µM in assay [2]; 71.8 µM in assay [3]; 82.8 µM in assay [4]; 22.4 µM in assay [5]; more than 100 µM in assay [10]. In addition, the TGI in assay [6] is 19.7 µM; in assay [7], more than 100 µM; in assay [8], 19.2 µM; in assay [11], more than 100 µM.

Regarding `CC1(C)OCC2OC3([C@H](O)CCO)OC(C)(C)OC3C2O1` (some centres undefined), the TGI in assay [1], in [2], in assay [3], in [4], in assay [5] and in [9] was more than 100 µM each time. In addition, the TGI in assay [6], in assay [7], in assay [8] and in [11] was more than 100 µM each time.

Consider `Oc1ccc2c(c1)OCC(O)(c1ccccc1O)C2` (centres undefined), for which the TGI in [2], in [3], in assay [4], in assay [5], in [9] and in assay [10] was more than 100 µM each time. Besides, the TGI in assay [6], in assay [7], in assay [8] and in assay [11] was more than 100 µM in each case.

With `CCOC(=O)c1c(C)n(Cc2ccccc2)c2c1cc(O)c1[nH]c3c(c12)CCCC3`, the TGI stood at 19.6 µM in assay [1]; 13.2 µM in assay [2]; 19 µM in assay [3]; 24.4 µM in assay [4]; 18.5 µM in assay [5]; 4.97 µM in [9]. For the same compound, the TGI in [10] was found to be 5.16 µM; in [6], 11.5 µM; in [7], 16.5 µM; in assay [11] it was 4.1 µM.

On to `CC1=C(C(=O)OCCO[N+](=O)[O-])C(c2ccccc2C(F)(F)F)C(C(=O)OC(C)C)=C(C)N1` (centres undefined), for which the TGI in assay [1] is more than 100 µM; in [2] it was 21.8 µM; in assay [3], 23.5 µM; in assay [4], 53.5 µM; in [5], 57.8 µM; in [9] it was more than 100 µM. Besides, the TGI was found to be 47.9 µM in [10], 26.9 µM in assay [6], 78.3 µM in [7] and 29.1 µM in assay [11].

Turning to `Cn1c(-c2csc(-c3ccc(Cl)cc3)n2)n[nH]c1=S`, the TGI in assay [1] is more than 100 µM; in [2], more than 100 µM; in [3] it was 69.4 µM; in [4], more than 100 µM; in assay [5], more than 100 µM; in assay [10], 81.4 µM. Further, the figures for the TGI in assay [6], in [7] and in [8] were 34.3 µM, 44.4 µM and 39.8 µM, respectively.
